Test results: patent US12077777B2, “Precursory regulatory cytotrophoblast cells and uses thereof” (Accelerated BioSciences Corp., priority 2019, dated 2024)

Assays:
PI3K/AKT signaling = experiment: Gβ/PI3K/AKT/GSK3α/β pathway by blotting analysis in hTS cells; assay type: cell-based, human
Description: (§1) In cell culture, hTS cells were treated with bFGF and harvested at time as indicated and put into RIPA lysis solution (MILLIPORE®) supplemented with protease (Thermo Scientific) and phosphatase inhibitor (Cell Signaling Technology). After electrophoresis of 30 μg lysates on polyacrylamide gels, electroblotting onto PDVF membranes (MILLIPORE®) was performed. By blocking of 5% non-fat dry milk in PBS at room temperature (I hr), target proteins were incubated with primary antibodies. All membranes were incubated with chemiluminescent (MILLIPORE®) and imaging was captured by the CHEMIDOC® XRS system (BIO-RAD®). Antibodies used were listed in Key Resource Table. Data were analyzed by AlphaEaseFC (version 4.0.0).

FGFR1 = molecular target: T1, FGFR1 (Homo sapiens, UniProt P11362); experiment: bFGF activation of FGFR1 and downstream PI3K signal, Western blot assay; assay type: cell-based; details: bFGF 10 ng/ml
T1 construct: endogenous in cells; host or cells: human trophoblast stem (hTS) cells
Description: as §1

CD4 = experiment: IL-8 generated CD4(+) prCTBs, Western blot assay; assay type: cell-based, human; details: IL-8 30 ng/ml
Description: as §1, with “After” for “In cell culture, hTS cells were treated with bFGF and harvested at time as indicated and put into RIPA lysis solution (MILLIPORE®) supplemented with protease (Thermo Scientific) and phosphatase inhibitor (Cell Signaling Technology). After”

Foxp3 = experiment: IL-8 induced Foxp3 via CXCR2/STAT3 signaling, Western blot; assay type: cell-based, human; details: IL-8 30 ng/ml; for IL-8-induced Foxp3 in presence of inhibitor: n=3 cell lines
Description: as §1, with “After” for “In cell culture, hTS cells were treated with bFGF and harvested at time as indicated and put into RIPA lysis solution (MILLIPORE®) supplemented with protease (Thermo Scientific) and phosphatase inhibitor (Cell Signaling Technology). After”

CD56 = experiment: IL-8 induced CD56 via CXCR2/STAT3 signaling, Western blot assay; assay type: cell-based, human; details: IL-8 30 ng/ml
Description: as §1, with “After” for “In cell culture, hTS cells were treated with bFGF and harvested at time as indicated and put into RIPA lysis solution (MILLIPORE®) supplemented with protease (Thermo Scientific) and phosphatase inhibitor (Cell Signaling Technology). After”

hTS cells = experiment: Insulin secretion by RIA in secretomic analysis; assay type: cell-based, human; details: hTS cells (1×10^6 cells), glucose 20 mM, gliclazide 10 μM, nifedipine 10 μM, n=3
Description: The hTS cell culture media (10 ml) were harvested at 80-90% confluence followed by centrifugation (3,000 rpm, 30 min, 4° C.). The supernatants were further concentrated to 1 ml by using 3 kDa VIVASPIN® concentrator (Sigma). The concentrated supernatant was further detected for TGF-β1, HLA-G, and PAI-1 by immunoblotting assay. IL-10 level was measured by OPTEIA® ELISA assay kit following the supplier's instructions (BD Pharmingen, San Diego). The range of detectable IL-10 concentration was between 2 and 2,000 pg/ml. An aliquot of 100 μl sample was measured in triplicate. Total protein of supernatant was measured by using Pierce BCA protein assay kit (THERMO […]®). […] Media were collected at different time (5, 10, 20, 30, 60 and 120 min), freeze dried by lyophilizer (VIRTIS®; Warminster), and rehydrated with sterile water (400 μl) for radioimmunoassay (RIA). C-peptide and insulin levels were determined by C-PEP II-RIA-CT (DIAsource ImmunoAssays S. A.) and Coat-A-Count insulin (Siemens Healthcare Diagnostics), respectively, in 5 assays.

prCTBs = experiment: Transwell invasion and migration assay, prCTBs; assay type: cell-based, human; details: dose- and time-dependent; 4×10^3 cells/ml; n=3
Description: […] To do this, add extracellular matrix (ECM) materials on top of the transwell membrane and then add cells on top of the ECM. For example, […]® is thawed and liquefied on ice, and then 30-50 μl of […]® is added to a 24-well transwell insert and solidified in a 37 C incubator for 15-30 minutes to form a thin gel layer. Cell solution is added on top of the […]® coating to simulate invasion through the extracellular matrix. The transwell cell migration assay measures the chemotactic capability of cells toward a chemo-attractant. The transwell cell invasion assay, however, measures both cell chemotaxis and the invasion of cells through extracellular matrix, a process that is commonly found in cancer metastasis or embryonic development. Using a pipette, very carefully add 600 μl of the desired chemo-attractant into the bottom of the lower chamber in a 24-well plate. Add the chemo-attractant without moving the transwell insert and avoid generating bubbles. Make sure the chemo-attractant liquid in the bottom well makes contact with the membrane in the upper well to form a chemotactic gradient. Incubation time is dependent on cell type and the chemo-attractant being used. Note: Further tests may be needed to determine the incubation period. […] The number of migrated cells can be counted by using hemocytometer or flow cytometer. […]

hTSCs [1] = experiment: Transwell invasion and migration assay, hTSCs; assay type: cell-based, human; details: dose- and time-dependent; 4×10^3 cells/ml; n=3
hTSCs [2] = experiment: RT-qPCR analysis of IL-6 / IL-8 treated hTSCs; assay type: cell-based, human; details: n=4; for CREB1 mRNA: IL-6 10 ng/ml or IL-8 30 ng/ml
Description: RNA was isolated from hTS cells in triplicate or quintuple samples using TRIZOL® reagent (INVITROGEN®) with DNAase I on-column digestion (Qiagen) according to manufacturer's protocol. Total RNA (500 ng) was used for reverse transcription with […] cDNA synthesis kit (BIO-RAD®). PCR carried out in duplicate using 1/40th of the cDNA per reaction and 400 nM forward and reverse primers. For miRNA stem-loop qPCR, we used single tube TAQMAN® miRNA assays as manufacturer's instruction (Applied Biosystems). All RT reactions, including no-template controls and RT minus controls, were carried out in a GENEAMP® PCR 9700 Thermocycler (Applied Biosystems). Comparative real-time PCR was performed in triplicate or quintuple, including no-template controls, using specific primers for miR-124 or RNU6B (Applied Biosystems). U6 snRNA (RNU6B; Applied Biosystems) served as an endogenous control. Relative expression was calculated using SDS2.2.2 software (Applied Biosystems) was used for comparative ΔCt analysis.

β-hCG = experiment: IL-6 induced β-hCG, Western blot assay; assay type: cell-based, human; details: IL-6 10 ng/ml, via GnRHR and IL-6R
Description: as §1, with “After” for “In cell culture, hTS cells were treated with bFGF and harvested at time as indicated and put into RIPA lysis solution (MILLIPORE®) supplemented with protease (Thermo Scientific) and phosphatase inhibitor (Cell Signaling Technology). After”

IL-6 and IL-8 = experiment: bFGF induction of IL-6 and IL-8; assay type: cell-based, human; details: bFGF 10 ng/ml; time-dependent; n=3 cell lines
Description: To explore how prCTBs produce cytokines IL-6 and IL-8, hTSCs were incubated with bFGF for 1-day mimicking the transient stay in the fallopian tube. Mechanistically, bFGF activated its receptor FGFR1 at cell membrane to induce PI3K/phosphorylated (p)AKT signaling. In turn, pAKT interacted and phosphorylated downstream pCREB1 (cAMP responsive element binding protein 1) to activate pCREB1 signaling. These molecular processes were verified by using FGFR 1 inhibitor PD166866, and specific shRNAs for PI3K and pAKT (FIGS. 7G-7J). In the nucleus, CREB1 targeted the genes to produce IL-6 in a time-dependent manner (FIG. 7K, left panel) and IL-8 (FIG. 7K, right panel) in a dose-dependent manner, confirmed by ELISA assay (FIG. 7C). These molecular processes occurred co-incidentally with EMT in time and space.

hTSCs [3] = experiment: bFGF-induced epithelial-mesenchymal transition markers, Western blot assay; assay type: cell-based, human; details: bFGF 10 ng/ml
Description: as §1

[4] = tested on: STAT3, c-JUN, Fas ligand (FasL), Fas; experiment: STAT3, c-JUN, FasL and Fas by immunoblotting assay; assay type: cell-based, human; details: bFGF 10 ng/ml
Description: as §1

T1 sequence (P11362 22-822): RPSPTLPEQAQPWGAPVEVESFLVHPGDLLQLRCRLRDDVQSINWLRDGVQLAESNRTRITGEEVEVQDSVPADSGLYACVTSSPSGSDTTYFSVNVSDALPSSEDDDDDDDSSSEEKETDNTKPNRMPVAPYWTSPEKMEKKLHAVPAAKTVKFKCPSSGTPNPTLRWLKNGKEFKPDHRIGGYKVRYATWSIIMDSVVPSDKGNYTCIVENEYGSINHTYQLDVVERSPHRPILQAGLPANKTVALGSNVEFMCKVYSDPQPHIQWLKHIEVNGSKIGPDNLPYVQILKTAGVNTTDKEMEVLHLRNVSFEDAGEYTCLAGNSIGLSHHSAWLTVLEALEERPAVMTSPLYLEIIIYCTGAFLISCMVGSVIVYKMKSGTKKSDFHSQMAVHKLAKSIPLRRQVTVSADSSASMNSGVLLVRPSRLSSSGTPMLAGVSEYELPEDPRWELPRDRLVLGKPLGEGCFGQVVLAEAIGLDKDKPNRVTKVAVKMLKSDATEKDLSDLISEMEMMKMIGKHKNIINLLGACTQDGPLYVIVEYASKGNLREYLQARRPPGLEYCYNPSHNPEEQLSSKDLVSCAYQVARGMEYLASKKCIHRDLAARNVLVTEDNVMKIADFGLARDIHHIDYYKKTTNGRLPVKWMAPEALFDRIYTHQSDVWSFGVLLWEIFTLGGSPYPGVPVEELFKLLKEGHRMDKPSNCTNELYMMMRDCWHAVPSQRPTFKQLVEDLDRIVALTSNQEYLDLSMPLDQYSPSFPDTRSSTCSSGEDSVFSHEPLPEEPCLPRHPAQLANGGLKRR

NC1(c2ccc(-c3nc4ccn5c(=O)[nH]nc5c4cc3-c3ccccc3)cc2)CCC1 [MK2206]
Gβ-induced phosphorylation of AKT (ser473) and GSK3α/β (ser21/9) in presence of inhibitor (PI3K/AKT signaling): inhibited

COc1cc(OC)cc(-c2cc3cnc(N)nc3nc2NC(=O)NC(C)(C)C)c1 [PD166866, reference compound]
bFGF activation of FGFR1 and PI3K signal in presence of inhibitor (FGFR1): inhibited

Cn1cc(C2=C(c3ccc(Cl)cc3Cl)C(=O)NC2=O)c2ccccc21 [SB216763]
pMAFA expression in presence of inhibitor (PI3K/AKT signaling): inhibited

O=C(Nc1ccc([N+](=O)[O-])cc1O)Nc1ccccc1Br [SB225002]
IL-8-induced CD4 in presence of inhibitor (CD4): inhibited
IL-8-induced Foxp3 in presence of inhibitor (Foxp3): inhibited
IL-8-induced CD56 in presence of inhibitor (CD56): inhibited

O=[N+]([O-])c1ccc2c(c1)S(=O)(=O)C=C2 [Stattic]
IL-8-induced CD4 in presence of inhibitor (CD4): inhibited
IL-8-induced Foxp3 in presence of inhibitor (Foxp3): inhibited
IL-8-induced CD56 in presence of inhibitor (CD56): inhibited

Cc1ccc(S(=O)(=O)NC(=O)NN2CC3CCCC3C2)cc1 (stereo not shown) [gliclazide]
insulin secretion (hTS cells): promoted insulin secretion

CXCL2: chemokine (C-X-C motif) ligand 2
movement (invasion and migration) of prCTBs (prCTBs): significantly induced movement
movement (invasion and migration) of hTSCs (hTSCs [1]): significantly induced movement

IL-6: interleukin 6
CREB1 mRNA (hTSCs [2]; hTSCs): upregulated
IL-6R mRNA (hTSCs [2]; IL-6 10 ng/ml, hTSCs): upregulated
β-hCG mRNA (hTSCs [2]; IL-6 10 ng/ml, hTSCs): upregulated
β-hCG induction (β-hCG): induced β-hCG

IL-8: interleukin 8
generation of CD4(+) prCTBs (CD4): generated CD4(+) prCTBs
CREB1 mRNA (hTSCs [2]; hTSCs): upregulates
CD56 mRNA (hTSCs [2]; IL-8 30 ng/ml): upregulates
conventional receptor IL-8R mRNA (hTSCs [2]; IL-8 30 ng/ml): not
Foxp3 induction (Foxp3): induced Foxp3
CD56 induction (CD56): induced CD56

MCP-1: monocyte chemoattractant protein-1
movement (invasion and migration) of prCTBs (prCTBs): significantly induced movement
movement (invasion and migration) of hTSCs (hTSCs [1]): significantly induced movement

bFGF: basic fibroblast growth factor
activation of FGFR1 and downstream PI3K signal (FGFR1): activated
IL-6 production (IL-6 and IL-8): induced
IL-8 production (IL-6 and IL-8): induced
E-cadherin expression (hTSCs [3]): down-regulated
TGF-β1 expression (hTSCs [3]): up-regulated
vimentin expression (hTSCs [3]): up-regulated
Fas level [4]: downregulation
Fas ligand (FasL) level [4]: upregulation
STAT3 level [4]: upregulation
c-JUN level [4]: upregulation
